Measured values taken from ChEMBL document CHEMBL3407416, “Discovery of (R)-8-(1-(3,5-difluorophenylamino)ethyl)-N,N-dimethyl-2-morpholino-4-oxo-4H-chromene-6-carboxamide (AZD8186): a potent and selective inhibitor of PI3Kβ and PI3Kδ for the treatment of PTEN-deficient cancers” (J Med Chem, 2015).
pIC50: −log10 of the molar value. Activity calls are given as the source filed them. No cut-off for these calls is given here.

Tests used:
[1] = target: T1, Phosphatidylinositol 4,5-bisphosphate 3-kinase catalytic subunit alpha isoform (Homo sapiens, UniProt P42336); test: Inhibition of PI3Kalpha mutant human BT474 cells assessed as inhibition of Akt phosphorylation at […] after 2 hrs; format: cell-based; conditions: bt-474
Target sequence in this assay (P42336 whole entry, looked up, canonical isoform): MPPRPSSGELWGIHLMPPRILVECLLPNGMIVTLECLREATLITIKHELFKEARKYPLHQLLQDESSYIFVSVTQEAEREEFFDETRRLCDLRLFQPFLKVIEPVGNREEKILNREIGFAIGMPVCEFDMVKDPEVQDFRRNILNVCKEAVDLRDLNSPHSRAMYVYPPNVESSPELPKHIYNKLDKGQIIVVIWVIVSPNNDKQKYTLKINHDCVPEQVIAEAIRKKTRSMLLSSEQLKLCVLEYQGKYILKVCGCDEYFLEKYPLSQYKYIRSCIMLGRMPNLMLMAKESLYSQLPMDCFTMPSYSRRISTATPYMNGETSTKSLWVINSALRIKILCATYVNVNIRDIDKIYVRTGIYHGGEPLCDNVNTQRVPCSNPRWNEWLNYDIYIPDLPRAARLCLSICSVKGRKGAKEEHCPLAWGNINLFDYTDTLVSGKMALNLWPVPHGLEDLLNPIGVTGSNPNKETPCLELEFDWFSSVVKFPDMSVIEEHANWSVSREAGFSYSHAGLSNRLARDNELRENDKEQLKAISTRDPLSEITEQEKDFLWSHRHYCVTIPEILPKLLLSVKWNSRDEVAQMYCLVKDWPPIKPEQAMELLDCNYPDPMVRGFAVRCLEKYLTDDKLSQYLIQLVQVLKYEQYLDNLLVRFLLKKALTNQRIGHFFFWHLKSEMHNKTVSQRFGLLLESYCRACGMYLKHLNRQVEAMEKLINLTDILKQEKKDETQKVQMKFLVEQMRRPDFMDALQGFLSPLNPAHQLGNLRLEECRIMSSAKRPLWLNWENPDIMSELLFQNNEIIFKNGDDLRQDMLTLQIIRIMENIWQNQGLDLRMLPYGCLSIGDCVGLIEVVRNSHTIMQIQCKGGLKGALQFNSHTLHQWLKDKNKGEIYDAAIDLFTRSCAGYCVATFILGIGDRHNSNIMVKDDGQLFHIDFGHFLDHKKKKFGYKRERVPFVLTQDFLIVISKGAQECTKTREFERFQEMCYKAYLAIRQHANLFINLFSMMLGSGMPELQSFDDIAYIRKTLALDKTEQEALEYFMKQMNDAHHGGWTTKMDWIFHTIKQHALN

[2] = Oral bioavailability in mouse at 30 umol/kg administered as propylene glycol; format: ADME, organism-based; conditions: in vivo
[3] = AUC in mouse at 30 umol/kg, po administered as propylene glycol; format: ADME, organism-based; conditions: plasma
[4] = target: T2, Phosphatidylinositol 4,5-bisphosphate 3-kinase catalytic subunit delta isoform (Homo sapiens, UniProt O00329); test: Inhibition of human recombinant PI3Kdelta using PIP2 by Kinase-Glo Plus assay
T2 sequence (O00329 whole entry): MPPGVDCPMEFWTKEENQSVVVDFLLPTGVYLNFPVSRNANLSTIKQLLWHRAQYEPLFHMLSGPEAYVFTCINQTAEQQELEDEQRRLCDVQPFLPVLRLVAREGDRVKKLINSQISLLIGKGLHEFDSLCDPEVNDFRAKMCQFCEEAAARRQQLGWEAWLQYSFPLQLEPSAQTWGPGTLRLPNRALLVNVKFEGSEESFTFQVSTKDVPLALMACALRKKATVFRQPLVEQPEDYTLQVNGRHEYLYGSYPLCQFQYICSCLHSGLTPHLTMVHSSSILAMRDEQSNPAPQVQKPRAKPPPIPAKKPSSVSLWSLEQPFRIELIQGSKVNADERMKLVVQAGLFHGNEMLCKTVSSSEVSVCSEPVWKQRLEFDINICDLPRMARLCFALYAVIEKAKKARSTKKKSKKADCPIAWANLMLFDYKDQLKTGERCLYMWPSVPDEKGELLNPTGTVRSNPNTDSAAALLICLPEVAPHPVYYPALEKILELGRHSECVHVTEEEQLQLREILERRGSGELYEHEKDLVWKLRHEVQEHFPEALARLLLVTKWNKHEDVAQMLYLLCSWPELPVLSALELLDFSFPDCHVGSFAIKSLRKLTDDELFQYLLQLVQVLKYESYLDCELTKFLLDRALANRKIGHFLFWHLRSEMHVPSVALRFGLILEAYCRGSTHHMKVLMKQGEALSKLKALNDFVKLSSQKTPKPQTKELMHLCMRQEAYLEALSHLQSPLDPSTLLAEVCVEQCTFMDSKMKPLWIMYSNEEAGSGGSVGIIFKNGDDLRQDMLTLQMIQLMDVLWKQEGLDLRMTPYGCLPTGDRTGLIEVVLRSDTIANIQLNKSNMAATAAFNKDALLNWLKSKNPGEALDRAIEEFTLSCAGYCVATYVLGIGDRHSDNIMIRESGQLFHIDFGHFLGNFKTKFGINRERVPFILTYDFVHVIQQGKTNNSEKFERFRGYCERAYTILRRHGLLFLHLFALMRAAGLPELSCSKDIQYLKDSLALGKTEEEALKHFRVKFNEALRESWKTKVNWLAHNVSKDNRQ

[5] = Lipophilicity, log D of the compound at pH 7.4 by shake-flask method; format: physicochemical; conditions: buffer
[6] = Oral bioavailability in dog at 30 umol/kg administered as propylene glycol; format: ADME, organism-based, Canis lupus familiaris; conditions: in vivo
[7] = Clearance in mouse at 5 umol/kg, iv administered as bolus dose in 20 to 30% DMA in PBS; format: ADME, organism-based; conditions: in vivo
[8] = target: T1, Phosphatidylinositol 4,5-bisphosphate 3-kinase catalytic subunit alpha isoform; test: Inhibition of human recombinant PI3Kalpha using PIP2 by Kinase-Glo Plus assay
Target sequence in this assay (P42336 whole entry, canonical isoform): as the sequence (P42336 whole entry, looked up, canonical isoform) above

[9] = target: Phosphatidylinositol 4,5-bisphosphate 3-kinase catalytic subunit gamma isoform (Homo sapiens, UniProt P48736); test: Inhibition of human recombinant PI3Kgamma using PIP2 by Kinase-Glo Plus assay
Chain of Phosphatidylinositol 4,5-bisphosphate 3-kinase catalytic subunit gamma isoform (P48736 whole entry, canonical isoform): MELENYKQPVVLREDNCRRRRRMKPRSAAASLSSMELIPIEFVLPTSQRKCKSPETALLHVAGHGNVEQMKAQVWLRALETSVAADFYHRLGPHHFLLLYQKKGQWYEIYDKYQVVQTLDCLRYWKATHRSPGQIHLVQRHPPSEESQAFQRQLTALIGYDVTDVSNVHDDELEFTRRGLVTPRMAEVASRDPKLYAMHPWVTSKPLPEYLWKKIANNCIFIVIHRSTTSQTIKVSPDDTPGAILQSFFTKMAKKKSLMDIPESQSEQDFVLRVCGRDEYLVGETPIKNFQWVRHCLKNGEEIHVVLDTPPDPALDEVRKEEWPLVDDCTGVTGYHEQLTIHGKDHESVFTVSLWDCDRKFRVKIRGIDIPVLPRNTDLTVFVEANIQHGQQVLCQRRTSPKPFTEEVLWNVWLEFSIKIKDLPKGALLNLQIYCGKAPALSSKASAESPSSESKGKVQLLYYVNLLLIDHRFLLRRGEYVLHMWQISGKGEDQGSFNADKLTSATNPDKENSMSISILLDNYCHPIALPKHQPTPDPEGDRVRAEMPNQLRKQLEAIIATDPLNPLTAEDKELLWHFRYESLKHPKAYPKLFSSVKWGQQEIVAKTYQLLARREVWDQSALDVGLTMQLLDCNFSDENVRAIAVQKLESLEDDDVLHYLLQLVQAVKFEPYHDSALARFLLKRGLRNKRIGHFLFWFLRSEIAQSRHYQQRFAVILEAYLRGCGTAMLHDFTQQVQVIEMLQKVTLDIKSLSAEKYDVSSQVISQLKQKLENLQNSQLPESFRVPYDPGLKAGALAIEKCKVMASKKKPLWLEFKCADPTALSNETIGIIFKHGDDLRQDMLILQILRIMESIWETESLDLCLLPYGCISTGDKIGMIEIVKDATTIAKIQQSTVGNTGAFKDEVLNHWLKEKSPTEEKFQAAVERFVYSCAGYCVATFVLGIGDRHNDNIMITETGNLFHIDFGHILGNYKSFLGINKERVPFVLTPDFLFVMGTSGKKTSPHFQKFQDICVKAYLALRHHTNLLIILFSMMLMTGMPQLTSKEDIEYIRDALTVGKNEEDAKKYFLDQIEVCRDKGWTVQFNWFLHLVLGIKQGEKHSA

[10] = Fraction unbound in mouse plasma; format: ADME, cell-free
[11] = target: T3, Voltage-gated inwardly rectifying potassium channel KCNH2 (Homo sapiens, UniProt Q12809); test: Inhibition of human ERG channel
T3 sequence (Q12809 whole entry): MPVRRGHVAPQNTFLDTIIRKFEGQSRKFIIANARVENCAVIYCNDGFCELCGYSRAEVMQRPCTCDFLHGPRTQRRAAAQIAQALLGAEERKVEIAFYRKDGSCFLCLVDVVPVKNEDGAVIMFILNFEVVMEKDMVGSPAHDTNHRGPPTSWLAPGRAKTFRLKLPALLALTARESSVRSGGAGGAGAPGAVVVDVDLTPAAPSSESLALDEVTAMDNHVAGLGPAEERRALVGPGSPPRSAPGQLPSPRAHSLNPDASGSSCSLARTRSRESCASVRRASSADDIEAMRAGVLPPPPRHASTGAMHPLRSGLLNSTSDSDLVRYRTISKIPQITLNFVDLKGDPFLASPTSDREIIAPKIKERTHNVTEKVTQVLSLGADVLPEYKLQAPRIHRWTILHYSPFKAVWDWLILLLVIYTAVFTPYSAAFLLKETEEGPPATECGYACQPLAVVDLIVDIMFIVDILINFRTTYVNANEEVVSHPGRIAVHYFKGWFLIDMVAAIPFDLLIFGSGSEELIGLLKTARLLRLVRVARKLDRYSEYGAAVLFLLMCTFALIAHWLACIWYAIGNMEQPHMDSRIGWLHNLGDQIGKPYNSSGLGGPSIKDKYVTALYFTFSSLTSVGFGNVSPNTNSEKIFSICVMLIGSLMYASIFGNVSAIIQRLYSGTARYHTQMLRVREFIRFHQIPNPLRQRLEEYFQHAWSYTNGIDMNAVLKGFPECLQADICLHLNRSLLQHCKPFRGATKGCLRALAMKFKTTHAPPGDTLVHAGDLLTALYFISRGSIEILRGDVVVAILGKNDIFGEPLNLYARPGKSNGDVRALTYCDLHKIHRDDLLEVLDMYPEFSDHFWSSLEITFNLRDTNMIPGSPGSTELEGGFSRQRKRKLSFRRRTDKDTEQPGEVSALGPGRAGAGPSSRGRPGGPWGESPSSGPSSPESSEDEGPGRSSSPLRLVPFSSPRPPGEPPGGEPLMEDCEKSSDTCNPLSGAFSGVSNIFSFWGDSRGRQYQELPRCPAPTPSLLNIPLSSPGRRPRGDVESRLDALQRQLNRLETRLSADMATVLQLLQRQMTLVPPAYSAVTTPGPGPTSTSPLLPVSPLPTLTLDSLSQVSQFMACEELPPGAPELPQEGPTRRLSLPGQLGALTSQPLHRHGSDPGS

[12] = Apparent permeability from apical to basolateral side of human Caco2 cells; format: ADME, cell-based; conditions: Caco-2, read-out: permeability
[13] = Volume of distribution in mouse at 5 umol/kg, iv administered as bolus dose in 20 to 30% DMA in PBS; format: ADME, organism-based; conditions: in vivo
[14] = Intrinsic clearance in cryopreserved human hepatocytes measured per 10^6 cells; format: ADME, cell-based, Hepatocyte; conditions: read-out: CLH
[15] = Volume of distribution in dog at 5 umol/kg, iv administered as bolus dose in 20 to 30% DMA in PBS; format: ADME, organism-based, Canis lupus familiaris; conditions: in vivo
Canis familiaris = test: Intrinsic clearance in dog at 5 umol/kg, iv administered as bolus dose in 20 to 30% DMA in PBS; format: ADME, organism-based, Canis lupus familiaris; conditions: in vivo
Mus musculus [16] = test: Intrinsic clearance in mouse at 5 umol/kg, iv administered as bolus dose in 20 to 30% DMA in PBS; format: ADME, organism-based; conditions: in vivo
[17] = Fraction unbound in human plasma; format: ADME, cell-free
[18] = Fraction unbound in dog plasma; format: ADME, cell-free, Canis lupus familiaris
[19] = Clearance in dog at 5 umol/kg, iv administered as bolus dose in 20 to 30% DMA in PBS; format: ADME, organism-based, Canis lupus familiaris; conditions: in vivo
[20] = target: T4, Phosphatidylinositol 4,5-bisphosphate 3-kinase catalytic subunit beta isoform (Homo sapiens, UniProt P42338); test: Inhibition of human recombinant PI3Kbeta using PIP2 by Kinase-Glo Plus assay
T4 sequence (P42338 whole entry, canonical isoform): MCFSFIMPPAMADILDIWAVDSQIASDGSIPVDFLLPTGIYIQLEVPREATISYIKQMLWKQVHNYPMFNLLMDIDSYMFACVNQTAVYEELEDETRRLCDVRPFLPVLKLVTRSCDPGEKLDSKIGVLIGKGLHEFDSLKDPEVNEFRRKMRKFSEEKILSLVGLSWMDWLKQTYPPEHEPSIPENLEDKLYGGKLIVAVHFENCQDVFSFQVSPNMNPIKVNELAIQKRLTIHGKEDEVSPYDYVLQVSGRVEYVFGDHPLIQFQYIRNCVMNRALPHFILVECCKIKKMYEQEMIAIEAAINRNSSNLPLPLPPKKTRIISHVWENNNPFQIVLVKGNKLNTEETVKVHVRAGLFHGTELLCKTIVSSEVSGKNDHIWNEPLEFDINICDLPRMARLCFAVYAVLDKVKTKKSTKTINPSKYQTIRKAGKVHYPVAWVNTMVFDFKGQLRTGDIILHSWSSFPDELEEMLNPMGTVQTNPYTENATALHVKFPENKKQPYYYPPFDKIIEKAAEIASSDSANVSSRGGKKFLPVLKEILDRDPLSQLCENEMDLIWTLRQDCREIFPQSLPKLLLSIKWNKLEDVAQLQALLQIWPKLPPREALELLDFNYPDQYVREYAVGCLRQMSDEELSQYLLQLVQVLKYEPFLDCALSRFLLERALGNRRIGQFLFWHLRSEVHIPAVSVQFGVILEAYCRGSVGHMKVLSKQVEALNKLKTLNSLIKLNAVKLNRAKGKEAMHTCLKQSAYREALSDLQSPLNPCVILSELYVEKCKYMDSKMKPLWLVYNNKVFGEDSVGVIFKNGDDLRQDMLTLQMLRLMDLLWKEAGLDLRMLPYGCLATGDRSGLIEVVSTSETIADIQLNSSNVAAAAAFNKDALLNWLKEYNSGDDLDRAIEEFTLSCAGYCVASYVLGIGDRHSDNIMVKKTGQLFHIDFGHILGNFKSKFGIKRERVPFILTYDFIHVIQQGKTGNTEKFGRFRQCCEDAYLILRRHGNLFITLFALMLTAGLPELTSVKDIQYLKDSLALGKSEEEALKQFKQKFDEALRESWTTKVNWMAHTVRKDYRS

[21] = target: T4, Phosphatidylinositol 4,5-bisphosphate 3-kinase catalytic subunit beta isoform; test: Inhibition of PI3Kbeta in PTEN-null human MDA-MB-468 cells assessed as inhibition of Akt phosphorylation after 2 hrs; format: cell-based
[22] = target: T3, Voltage-gated inwardly rectifying potassium channel KCNH2; test: Inhibition of human ERG channel at 100 uM
PC-3 [23] = test: Antitumor activity against human PC3 cells xenograft mouse model assessed as inhibition of tumor growth at 30 mg/kg, po bid in presence of 1-aminobenzotriazole; format: functional, organism-based; parameters: dose 30 mg/kg
[24] = target: T2, Phosphatidylinositol 4,5-bisphosphate 3-kinase catalytic subunit delta isoform; test: Inhibition of PI3Kdelta in human Jeko B cells assessed as inhibition of Akt phosphorylation after 2 hrs; format: cell-based
PC-3 [25] = test: Antitumor activity against human PC3 cells xenograft mouse model assessed as inhibition of tumor growth at 60 mg/kg, po bid in presence of 1-aminobenzotriazole; format: functional, organism-based; parameters: dose 60 mg/kg
Mus musculus [26] = test: Inhibition of Akt phosphorylation at Ser473 in PTEN-deficient human PC3 cells xenograft mouse model at 100 mg/kg, po single dose measured up to 8 hrs; format: functional, organism-based; parameters: dose 100 mg/kg; conditions: PC-3

| SMILES | pIC50 [1] | bioavailability [2] | AUC [3] | pIC50 [4] | logD [5] | bioavailability [6] | clearance [7] | pIC50 [8] | pIC50 [9] | fraction unbound [10] | Papp A→B [12] | Vd [13] | hepatocyte CLint [14] | Vd [15] | clearance (Canis familiaris) | clearance (Mus musculus [16]) | fraction unbound [17] | fraction unbound [18] | pIC50 [20] | pIC50 [21] | further results |
| --- | --- | --- | --- | --- | --- | --- | --- | --- | --- | --- | --- | --- | --- | --- | --- | --- | --- | --- | --- | --- | --- |
| C[C@H](c1cc(C(=O)N(C)CCO)cc2c(=O)cc(N3CCOCC3)oc12)N(C)c1cc(F)cc(F)c1 | 5.33 | – | 0.7 µM·h | 7.28 | 2.1 | – | – | 6.74 | 5.92 | 0.15 | 7 ×10⁻⁶ cm/s | – | < 3 µL/min/1e6 cells | – | – | – | 0.17 | 0.23 | – | – | – |
| C[C@H](c1cc(C(=O)N2CCC(O)CC2)cc2c(=O)cc(N3CCOCC3)oc12)N(C)c1cc(F)cc(F)c1 | 5.32 | – | 0.8 µM·h | 7.09 | 2.4 | – | – | 6.43 | 5.80 | 0.18 | 4.6 ×10⁻⁶ cm/s | – | < 3 µL/min/1e6 cells | – | – | – | 0.17 | 0.23 | 8.15 | 7.92 | – |
| CC(Nc1cc(F)ccc1F)c1cc(C(=O)N(C)C)cc2c(=O)cc(N3CCOCC3)oc12 (racemic) | 5.15 | – | – | 6.82 | 1.8 | – | – | 6.35 | 5.22 | – | 12 ×10⁻⁶ cm/s | – | 6 µL/min/1e6 cells | – | – | – | – | – | 7.72 | 7.22 | – |

The next compounds have a higher pIC50 [1] than those just listed; values first:

| pIC50 [1] | bioavailability [2] | AUC [3] | pIC50 [4] | logD [5] | bioavailability [6] | clearance [7] | pIC50 [8] | pIC50 [9] | fraction unbound [10] | Papp A→B [12] | Vd [13] | hepatocyte CLint [14] | Vd [15] | clearance (Canis familiaris) | clearance (Mus musculus [16]) | fraction unbound [17] | fraction unbound [18] | pIC50 [20] | pIC50 [21] | SMILES | further results |
| --- | --- | --- | --- | --- | --- | --- | --- | --- | --- | --- | --- | --- | --- | --- | --- | --- | --- | --- | --- | --- | --- |
| 5.52 | 68% | 8.6 µM·h | 7.14 | 2.4 | 31% | 34 mL/min/kg | 6.55 | 5.46 | 0.1 | 42 ×10⁻⁶ cm/s | 2 L/kg | < 4 µL/min/1e6 cells | 2.2 L/kg | 17 mL/min/kg | 37 mL/min/kg | 0.12 | 0.16 | – | – | C[C@H](c1cc(C(=O)N(C)C)cc2c(=O)cc(N3CCOCC3)oc12)N(C)c1cc(F)cc(F)c1 | pIC50 [11]: 4.72; clearance [19]: 27 mL/min/kg |
| 5.66 | – | – | 7.12 | 1.9 | – | – | 6.43 | 5.38 | – | 13 ×10⁻⁶ cm/s | – | < 3 µL/min/1e6 cells | – | – | – | – | – | 7.89 | 7.62 | CC(Nc1cccc(F)c1F)c1cc(C(=O)N(C)C)cc2c(=O)cc(N3CCOCC3)oc12 (racemic) | – |
| 6.12 | 18% | 1.2 µM·h | 7.92 | 2.3 | 23% | 77 mL/min/kg | 7.46 | 6.17 | 0.16 | 8 ×10⁻⁶ cm/s | 1.3 L/kg | 4 µL/min/1e6 cells | 2.2 L/kg | 11 mL/min/kg | 73 mL/min/kg | 0.19 | 0.31 | – | – | C[C@@H](Nc1cc(F)cc(F)c1)c1cc(C(=O)N(C)C)cc2c(=O)cc(N3CCOCC3)oc12 [AZD-8186] | inhibition (INH) [22]: Not Active; inhibition (PC-3 [23]): Active; pIC50 [24]: 7.77; inhibition (PC-3 [25]): Active; inhibition (Mus musculus [26]): Active; clearance [19]: 36 mL/min/kg |
